Source: US6808699B2, “Methods for imaging pulmonary and cardiac vasculature and evaluating blood flow using dissolved polarized 129Xe” (Medi-Physics, Inc., priority 1998, dated 2004)
Where two headings read alike, the source gives them in different places.

Assays:
[1] = longitudinal relaxation time T1 of polarized 129Xe; format: physicochemical, human; conditions: gas in the lung, with decay due to blood uptake included
From the text: As will be appreciated by those of skill in the art, imaging with polarized dissolved gas depends on transport of sufficient surviving polarization or magnetization to tissues of interest. In a preferred embodiment, the tissues of interest include the pulmonary region, and particularly the pulmonary vasculature. As will also be appreciated by those of skill in the art, polarization decays corresponding to the longitudinal relaxation time, T1. Dissolved phase ^129Xe can have a relatively short relaxation time (T1) generally thought to be due to the presence of oxygen and due to paramagnetic deoxyhemoglobin in the blood. For example, T1 for substantially fully oxygenated human cell membranes is estimated at about 15 seconds. Alternatively, T1 in blood has also been estimated as about 5 seconds. See A. Bifone et al., 93 Proc. Natl. Acad. Sci., p. 12932 (1996). Taking the estimated upper limit of about a five second transit time to the heart as discussed above, the xenon polarization can be attenuated to about ⅓ of its starting value at the heart. This relationship supports that TR should be shortened to less than about 2.5 seconds, and preferably less than about 1-2 seconds. Correspondingly, with about a 2.5 second transit time, the magnetization can be calculated as noted above to be about 0.61 of its starting magnetization. […]

[2] = cited from earlier work; for longitudinal relaxation time T1: dissolved phase, estimated

effective T1 [1]: about 33 seconds
SMILES: [129Xe] [^129Xe, Xenon-129]
longitudinal relaxation time T1 ([2]; in blood, Bifone et al. 1996): about 5 seconds
longitudinal relaxation time T1 ([2]; substantially fully oxygenated human cell membranes): about 15 seconds
gas phase T1 ([2]; gas phase in the lungs, estimated from generally known oxygen related effects): about 35 seconds
